Key:
VCB = molecular target: T1, VCB (Homo sapiens, UniProt P40337); assay: AlphaLISA proximity assay of ternary complex formation; format: binding; details: biotinylated VCB 20 nM, His6-VCB 20 nM, compound 0.5–200 nM
T1 construct: made in house
Experimental: Biotinylation of VCB. The VCB complex was mixed with EZ-link NHS-PEG4-biotin (Thermo Scientific) in a 1:1 molar ratio and incubated at room temperature for 1 h. The reaction was quenched using 1 M Tris-HCl, pH 7.5, and unreacted NHS-biotin was removed with a PD-10 MiniTrap desalting column (GE Healthcare) equilibrated with 20 mM HEPES, pH 7.5, 150 mM NaCl and 1 mM DTT.
AlphaLISA assay. All assays were performed at room temperature in 384-well plates with a final assay volume of 25 µL per well; plates were sealed with transparent film between addition of reagents. All reagents were prepared as 5× stocks diluted in 50 mM HEPES, pH 7.5, 100 mM NaCl, 0.1% (w/v) bovine serum albumin and 0.02% (w/v) 3-[(cholamidopropyl)dimethylammonio]-1-propanesulfonate (CHAPS). Biotinylated VCB (20 nM final) and His6-VCB (20 nM final) were incubated with a range of Homo-PROTAC concentrations (0.5–200 nM; three-in-five serial dilution) for 1 h. Anti-His acceptor beads (PerkinElmer, 10 µg ml^−1 final) were added and plates were incubated for another hour. Streptavidin-coated donor beads (PerkinElmer, 10 µg ml^−1 final) were added and plates were incubated for a final 1 h. Plates were read on a PHERAstar FS (BMG Labtech) using an optic module with an excitation wavelength of 680 nm and emission wavelength of 615 nm. Intensity values were plotted against PROTAC concentration on a log10 scale.

Alsin (ALS2) = assay: TMT MS proteomics in HeLa cells, ALS2 abundance; format: cell-based, Homo sapiens; details: 1 µM, 10 h, two replicates
Experimental: MS proteomics. Sample preparation. HeLa cells were seeded at 5 × 10^6 on a 10 cm plate 16 h before treatment. […] Cells were incubated at 37 °C and 5% CO2 for 10 h before harvesting. Cells were placed on ice and medium was removed and cells were washed twice with cold PBS. Cells were lysed in 0.5 ml of 100 mM Tris pH 8.0, 4% (w/v) SDS supplemented with protease inhibitor cocktail (Roche). The lysate was pulse sonicated briefly and then centrifuged at 17,000 × g for 15 min at 4 °C. The supernatant fraction of cell extract was snap-frozen in liquid nitrogen and stored in −80 °C freezer. Further sample processing, digestion, desalting, labeling and fractionation were performed as previously described.
nLC-MS/MS analysis. The TMT 10plex fractions were first analyzed as previously described. Briefly, the TMT 10plex fractions were analyzed sequentially on a Q Exactive HF Hybrid Quadrupole-Orbitrap Mass Spectrometer (Thermo Scientific) coupled to an UltiMate 3000 RSLCnano UHPLC system (Thermo Scientific) and EasySpray column (75 μm × 50 cm, PepMap RSLC C18 column, 2 μm, 100 Å, Thermo Scientific). The MS2 isolation window was set to 0.4 Da and the resolution set at 120,000. MS2 resolution was set at 60,000. The AGC targets for MS1 and MS2 were set at 3e^6 ions and 1e5 ions, respectively. The normalized collision energy was set at 32%. […] After the first analysis, the TMT labeled fractions were re-analyzed on the Q-Exactive HF using the same instrument settings and a target list generated from a theoretical trypsin digest of VHL. […] After the second analysis, two fractions were further analyzed using a targeted SIM/ddMS2 method on the Q-Exactive HF. […]
Peptide and protein identification. All the raw MS data files from the three analyses were merged and searched against the Uniprot-sprot-Trembl-Human-Canonical database by Maxquant software 1.5.3.30 for protein identification and TMT reporter ion quantitation. […] Quantified proteins were filtered if the absolute fold-change difference between the two DMSO replicates was ≥ 1.5.

T1 sequence (P40337 54-213): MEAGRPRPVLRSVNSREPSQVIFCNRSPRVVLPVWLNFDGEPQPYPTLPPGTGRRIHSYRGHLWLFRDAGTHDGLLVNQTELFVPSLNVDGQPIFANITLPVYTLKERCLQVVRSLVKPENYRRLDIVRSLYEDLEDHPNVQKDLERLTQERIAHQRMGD
T1 sequence (Q15369 17-112 partner limits assumed): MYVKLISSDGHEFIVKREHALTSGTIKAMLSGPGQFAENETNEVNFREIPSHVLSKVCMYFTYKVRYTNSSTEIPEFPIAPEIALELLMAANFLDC
T1 sequence (Q15370 1-104 partner limits assumed): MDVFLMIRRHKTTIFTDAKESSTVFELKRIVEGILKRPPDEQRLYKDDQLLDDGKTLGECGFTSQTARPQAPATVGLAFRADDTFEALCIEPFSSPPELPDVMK

Compound | ternary complex formation, AlphaLISA intensity (VCB) | average normalized ratio to DMSO, ALS2 (Alsin (ALS2))
Cc1ncsc1-c1ccc(CNC(=O)[C@@H]2C[C@@H](O)CN2C(=O)[C@@H](NC(=O)COCCOCCOCCOCCOCC(=O)N[C@H](C(=O)N2C[C@H](O)C[C@H]2C(=O)NCc2ccc(-c3scnc3C)cc2)C(C)(C)C)C(C)(C)C)cc1 [CM10, N ^1 ,N ^17-bis((S)-1-((2S,4R)-4-hydroxy-2-((4-(4-methylthiazol-5-yl)benzyl)carbamoyl)pyrrolidin-1-yl)-3,3-dimethyl-1-oxobutan-2-yl)-3,6,9,12,15-pentaoxaheptadecanediamide] | negligible levels of complex formation | 1.00
Cc1ncsc1-c1ccc(CNC(=O)[C@@H]2C[C@@H](O)CN2C(=O)[C@@H](NC(=O)COCCOCCOCCOCC(=O)N[C@H](C(=O)N2C[C@H](O)C[C@H]2C(=O)NCc2ccc(-c3scnc3C)cc2)C(C)(C)C)C(C)(C)C)cc1 [CM09, N ^1 ,N ^14-bis((S)-1-((2S,4R)-4-hydroxy-2-((4-(4-methylthiazol-5-yl)benzyl)carbamoyl)pyrrolidin-1-yl)-3,3-dimethyl-1-oxobutan-2-yl)-3,6,9,12-tetraoxatetradecanediamide] | negligible levels of complex formation | 0.98
Cc1ncsc1-c1ccc(CNC(=O)[C@@H]2C[C@@H](O)CN2C(=O)[C@@H](NC(=O)COCCOCCOCCOCCOCCOCC(=O)N[C@H](C(=O)N2C[C@H](O)C[C@H]2C(=O)NCc2ccc(-c3scnc3C)cc2)C(C)(C)C)C(C)(C)C)cc1 [CM11, N ^1 ,N ^20-bis((S)-1-((2S,4R)-4-hydroxy-2-((4-(4-methylthiazol-5-yl)benzyl)carbamoyl)pyrrolidin-1-yl)-3,3-dimethyl-1-oxobutan-2-yl)-3,6,9,12,15,18-hexaoxaicosanediamide] | highest intensity signal | 0.98

Source: publication PMC5635026, “Homo-PROTACs: bivalent small-molecule dimerizers of the VHL E3 ubiquitin ligase to induce self-degradation” (Nature Communications, 2017)
